Laboratory results: the supplement of paper PMC13380429

Legend:
[1] = system: A549-ACE2 infected with SARS-CoV-2; assay: cell count relative to DMSO; higher = less toxic; details: 24 h
Caco-2 [2] = assay: cell viability relative to DMSO; higher = less toxic; details: 72 h
Calu-3 [3] = assay: as above; details: 72 h
HepG2 [4] = assay: as above; details: 72 h
U2OS [5] = assay: as above; details: 72 h
Vero E6 [6] = assay: as above; details: 72 h
[7] = system: A549-ACE2 infected with SARS-CoV-2; assay: SARS-CoV-2 infection rate relative to DMSO; higher = more infection; details: 24 h
A549-ACE2 [8] = assay: phospholipidosis EC50; higher = less potent phospholipidosis inducer
A549-ACE2 [9] = assay: drug-induced phospholipidosis relative to tamoxifen; higher = more phospholipidosis
[10] = system: A549-ACE2 infected with SARS-CoV-2; assay: morphology score (similarity to uninfected cells); higher = more like uninfected cells; details: 24 h
Calu-3 [11] = assay: relative viability EC50 (midpoint between 100% and the lowest measured viability); higher = less toxic; details: 72 h
HepG2 [12] = assay: as above; details: 72 h
U2OS [13] = assay: as above; details: 72 h
Vero E6 [14] = assay: as above; details: 72 h
Caco-2 [15] = assay: drug sensitivity score (DSS) for viability; higher = more toxic; extreme values may be limits of the assay; details: 72 h
Calu-3 [16] = assay: as above; details: 72 h
HepG2 [17] = assay: as above; details: 72 h
U2OS [18] = assay: as above; details: 72 h
Vero E6 [19] = assay: as above; details: 72 h
Caco-2 [20] = assay: relative viability EC50 (midpoint between 100% and the lowest measured viability); higher = less toxic; details: 72 h

CCN(CC)CCCCNc1ncc2cc(-c3cc(OC)cc(OC)c3)c(NC(=O)NC(C)(C)C)nc2n1
Details	SARS-CoV-2 infection rate [%]	cell count [%]	cell viability [%]	morphology score	phospholipidosis EC50 [µM]
A549-ACE2 [8], 24 h	–	–	–	–	3.18
A549-ACE2 [8], 48 h	–	–	–	–	3.06
Caco-2 [2], 1 nM	–	–	102	–	–
Caco-2 [2], 10 nM	–	–	105	–	–
Caco-2 [2], 100 nM	–	–	103	–	–
Caco-2 [2], 1000 nM	–	–	103	–	–
Caco-2 [2], 10000 nM	–	–	69	–	–
Calu-3 [3], 1 nM	–	–	98.9	–	–
Calu-3 [3], 10 nM	–	–	98.9	–	–
Calu-3 [3], 100 nM	–	–	100	–	–
Calu-3 [3], 1000 nM	–	–	98.5	–	–
Calu-3 [3], 10000 nM	–	–	75.6	–	–
HepG2 [4], 1 nM	–	–	91.9	–	–
HepG2 [4], 10 nM	–	–	101	–	–
HepG2 [4], 100 nM	–	–	87.9	–	–
HepG2 [4], 1000 nM	–	–	96.1	–	–
HepG2 [4], 10000 nM	–	–	45.5	–	–
U2OS [5], 1 nM	–	–	106	–	–
U2OS [5], 10 nM	–	–	105	–	–
U2OS [5], 100 nM	–	–	100	–	–
U2OS [5], 1000 nM	–	–	85.8	–	–
U2OS [5], 10000 nM	–	–	41.5	–	–
Vero E6 [6], 1 nM	–	–	94.5	–	–
Vero E6 [6], 10 nM	–	–	97.1	–	–
Vero E6 [6], 100 nM	–	–	100	–	–
Vero E6 [6], 1000 nM	–	–	90.1	–	–
Vero E6 [6], 10000 nM	–	–	35.9	–	–
[1], 0.1 µM	–	96	–	–	–
[1], 0.3 µM	–	90	–	–	–
[1], 1 µM	–	103	–	–	–
[1], 3 µM	–	109	–	–	–
[7], 0.1 µM	105	–	–	–	–
[7], 0.3 µM	105	–	–	–	–
[7], 1 µM	96	–	–	–	–
[7], 3 µM	35	–	–	–	–
[10], 0.1 µM	–	–	–	0.01	–
[10], 0.3 µM	–	–	–	-0.12	–
[10], 1 µM	–	–	–	0.28	–
[10], 3 µM	–	–	–	0.68	–

drug-induced phospholipidosis [%], A549-ACE2 [9]
Details	0.3 µM	0.833333 µM	3.33333 µM	6.66667 µM	10 µM	30 µM
24 h	4.11	13.5	106	165	234	84.5
48 h	4.6	12.8	151	224	200	–
72 h	6.12	13.2	–	–	168	–

Details	drug sensitivity score	relative viability EC50 [µM]
Caco-2 [15]	1.2	–
Calu-3 [11]	–	> 10
Calu-3 [16]	1.1	–
HepG2 [12]	–	2.58
HepG2 [17]	3.5	–
U2OS [13]	–	1.58
U2OS [18]	5.4	–
Vero E6 [14]	–	1.96
Vero E6 [19]	5.2	–

N#Cc1ccc(N2N=C3c4ccc(C(=O)O)cc4CC[C@@H]3[C@@H]2C2CCCC2)cc1Cl
Details	SARS-CoV-2 infection rate, [7] [%]	cell count, [1] [%]	cell viability, Caco-2 [2] [%]	cell viability, Calu-3 [3] [%]	cell viability, HepG2 [4] [%]	cell viability, U2OS [5] [%]	cell viability, Vero E6 [6] [%]	morphology score, [10]
1 nM	–	–	92	101	93.1	97.1	96	–
10 nM	–	–	98.1	97.6	96.3	96.4	106	–
100 nM	–	–	105	95	114	99.4	90	–
0.3 µM	101	100	–	–	–	–	–	-0.02
1000 nM	–	–	95.1	92.5	95.5	97.7	98.5	–
3 µM	99	107	–	–	–	–	–	0.24
10 µM	98	96	–	–	–	–	–	-0.01
10000 nM	–	–	101	106	103	99.6	117	–
30 µM	75	97	–	–	–	–	–	0.57

Details	drug sensitivity score	relative viability EC50 [µM]
Caco-2 [15]	0	–
Caco-2 [20]	–	> 10
Calu-3 [11]	–	> 10
Calu-3 [16]	0	–
HepG2 [12]	–	> 10
HepG2 [17]	0	–
U2OS [13]	–	> 10
U2OS [18]	0	–
Vero E6 [14]	–	> 10
Vero E6 [19]	0	–

Nc1ccc(C(=O)Nc2cccc(-c3nc(N4CCOCC4)c4oc5ncccc5c4n3)c2)cn1
Details	SARS-CoV-2 infection rate [%]	cell count [%]	cell viability [%]	morphology score	phospholipidosis EC50 [µM]
A549-ACE2 [8], 24 h	–	–	–	–	6.01
A549-ACE2 [8], 48 h	–	–	–	–	7.56
A549-ACE2 [8], 72 h	–	–	–	–	4.36
Caco-2 [2], 1 nM	–	–	95.4	–	–
Caco-2 [2], 10 nM	–	–	97	–	–
Caco-2 [2], 100 nM	–	–	101	–	–
Caco-2 [2], 1000 nM	–	–	87.1	–	–
Caco-2 [2], 10000 nM	–	–	80	–	–
Calu-3 [3], 1 nM	–	–	101	–	–
Calu-3 [3], 10 nM	–	–	96.1	–	–
Calu-3 [3], 100 nM	–	–	100	–	–
Calu-3 [3], 1000 nM	–	–	96.5	–	–
Calu-3 [3], 10000 nM	–	–	94.8	–	–
HepG2 [4], 1 nM	–	–	109	–	–
HepG2 [4], 10 nM	–	–	99.6	–	–
HepG2 [4], 100 nM	–	–	88.3	–	–
HepG2 [4], 1000 nM	–	–	50.5	–	–
HepG2 [4], 10000 nM	–	–	61.6	–	–
Vero E6 [6], 1 nM	–	–	99.9	–	–
Vero E6 [6], 10 nM	–	–	100	–	–
Vero E6 [6], 100 nM	–	–	96.4	–	–
Vero E6 [6], 1000 nM	–	–	95.9	–	–
Vero E6 [6], 10000 nM	–	–	91.9	–	–
[1], 0.3 µM	–	100	–	–	–
[1], 3 µM	–	102	–	–	–
[1], 10 µM	–	101	–	–	–
[1], 30 µM	–	78	–	–	–
[7], 0.3 µM	90	–	–	–	–
[7], 3 µM	47	–	–	–	–
[7], 10 µM	63	–	–	–	–
[7], 30 µM	110	–	–	–	–
[10], 0.3 µM	–	–	–	0.31	–
[10], 3 µM	–	–	–	0.45	–
[10], 10 µM	–	–	–	0.08	–
[10], 30 µM	–	–	–	-0.12	–

drug-induced phospholipidosis [%], A549-ACE2 [9]
Details	0.3 µM	0.833333 µM	3.33333 µM	6.66667 µM	10 µM	30 µM
24 h	4.2	16.4	72	146	132	202
48 h	8.45	22.8	79.6	121	135	188
72 h	8	24.5	107	162	–	231

Details	drug sensitivity score	relative viability EC50 [µM]
Caco-2 [15]	1.8	–
Caco-2 [20]	–	> 10
Calu-3 [11]	–	> 10
Calu-3 [16]	0	–
HepG2 [17]	10.9	–
Vero E6 [14]	–	> 10
Vero E6 [19]	0	–

O=c1oc(-c2ccc(C(F)(F)F)cc2)nn1Cc1cc(Cl)ccc1O
Details	SARS-CoV-2 infection rate [%]	cell count [%]	cell viability [%]	morphology score
Caco-2 [2], 1 nM	–	–	109	–
Caco-2 [2], 10 nM	–	–	94.7	–
Caco-2 [2], 100 nM	–	–	101	–
Caco-2 [2], 1000 nM	–	–	99.2	–
Caco-2 [2], 10000 nM	–	–	92.6	–
HepG2 [4], 1 nM	–	–	105	–
HepG2 [4], 10 nM	–	–	107	–
HepG2 [4], 100 nM	–	–	99.7	–
HepG2 [4], 1000 nM	–	–	99.2	–
HepG2 [4], 10000 nM	–	–	97.3	–
[1], 0.3 µM	–	101	–	–
[1], 3 µM	–	102	–	–
[1], 10 µM	–	80	–	–
[1], 30 µM	–	65	–	–
[7], 0.3 µM	84	–	–	–
[7], 3 µM	102	–	–	–
[7], 10 µM	99	–	–	–
[7], 30 µM	68	–	–	–
[10], 0.3 µM	–	–	–	0.38
[10], 3 µM	–	–	–	-0.01
[10], 10 µM	–	–	–	0.05
[10], 30 µM	–	–	–	0.43

drug-induced phospholipidosis [%], A549-ACE2 [9]
Details	0.3 µM	0.833333 µM	3.33333 µM	6.66667 µM	10 µM	30 µM
24 h	-1	-1.2	-2.36	-1.21	0.96	6.42
48 h	3.5	-0.73	0.6	1.96	2.52	8.32
72 h	4.07	0.196	1.24	1.18	2.49	10.1

Details	drug sensitivity score	relative viability EC50 [µM]
Caco-2 [15]	0	–
Caco-2 [20]	–	> 10
HepG2 [12]	–	> 10
HepG2 [17]	0	–

O=[N+]([O-])/C=C/c1ccc2c(c1)OCO2 [3,4-methylenedioxy-beta-nitrostyrene]
Details	SARS-CoV-2 infection rate, [7] [%]	cell count, [1] [%]	cell viability, Caco-2 [2] [%]	cell viability, Calu-3 [3] [%]	cell viability, HepG2 [4] [%]	cell viability, U2OS [5] [%]	cell viability, Vero E6 [6] [%]	morphology score, [10]
1 nM	–	–	94.9	101	115	99.2	103	–
10 nM	–	–	107	105	97.9	97.5	101	–
100 nM	–	–	93.8	101	101	97.1	99.9	–
0.3 µM	95	106	–	–	–	–	–	0.14
1000 nM	–	–	104	100	95.9	100	96.9	–
3 µM	107	97	–	–	–	–	–	0.21
10 µM	39	49	–	–	–	–	–	0.48
10000 nM	–	–	72.3	95.5	91.3	43.7	84.3	–
30 µM	36	16	–	–	–	–	–	0.16

drug-induced phospholipidosis [%], A549-ACE2 [9]
Details	0.3 µM	0.833333 µM	3.33333 µM	6.66667 µM	30 µM
24 h	1.47	-0.82	0.27	3.08	-3.87
48 h	-0.23	-2.22	-2.44	-0.19	–
72 h	-0.171	-1.69	-1.41	-0.796	–

Details	drug sensitivity score	relative viability EC50 [µM]
Caco-2 [15]	0.9	–
Calu-3 [11]	–	> 10
Calu-3 [16]	0	–
HepG2 [12]	–	> 10
HepG2 [17]	0	–
U2OS [13]	–	3.2
U2OS [18]	3	–
Vero E6 [14]	–	> 10
Vero E6 [19]	0.6	–
